Experimental data published in paper PMC12797238 (ACS Infectious Diseases, 2025).
pEC50: −log10 of the molar value.

Assays:
[1] = test system: Trypanosoma brucei bloodstream forms; assay: Drug sensitivity assay, dose–response curves, T. brucei; assay type: cell-based; conditions: for pEC50: bloodstream forms, mean, n ≥ 3
Text: (§1) Human fibroblasts, T. brucei, T. gambiense, P. falciparum, L. mexicana, and B. divergens were cultivated as described previously, and dose–response curves were obtained by their cultivation on 96 well plates in a 2-fold seriel dilution of the appropriate drug.

[2] = test system: Plasmodium falciparum intracellular stages; assay: Drug sensitivity assay, dose–response curves, P. falciparum; assay type: cell-based; conditions: for pEC50: intracellular stages, mean, n ≥ 3; for P. falciparum selectivity: relative to fibroblasts
Text: as §1

[3] = test system: Toxoplasma tachyzoites mitochondrion; assay: Toxoplasma mitochondrial membrane potential (MitoTracker, cytometry and microscopy); assay type: cell-based, Toxoplasma gondii; conditions: 24 h at 3× EC50; for T. gondii mitochondrial membrane potential, flow cytometric quantification of Mitotracker labeling: DFX at 60 nM; for Mitotracker staining of T. gondii, microscopic observation: FCCP as uncoupler control
Procedure: We used the MitoTracker Deep Red FM fluorescent probe (Invitrogen) to assess the mitochondrial membrane potential in Toxoplasma tachyzoites. […] After another 24 h of culture at 37 °C and 5% CO2, Mitotracker labeling was performed as described in the protocol provided by the manufacturer, with a 45 min incubation at 37 °C and 5% CO2 of the reconstituted dye diluted to 1/1000 in culture medium. Parasites were then fixed for 30 min in 4% (w/v) PFA (diluted in PBS), washed twice in PBS, scraped, syringed (with a 25 G needle), filtered on a 40 μm membrane, and resuspended in 1 mL of PBS. Parasites were then analyzed with an Aurora spectral cytometer (Cytek), using a 633 nm excitation laser and a 665 nm detector. 10,000 events were recorded. Mean fluorescence was plotted against vehicle-treated culture parasites using Prism 8.0 (GraphPad Software), and statistical significance was determined using one-way ANOVA with Tukey’s multiple-comparison test. The experiment was performed for three biologically independent replicates. For the membrane depolarization control, parasites were treated with 10 μM FCCP for 30 min prior to and during incubation with the Mitotracker dye.
Intracellular parasites and the host cell monolayer were then fixed 24 h later with 4% (w/v) PFA (diluted in PBS) for 20 min, and after fixation, cells were permeabilized with 0.3% (v/v) Triton X-100 (diluted in PBS) for 10 min. Costaining with the anti-F1β ATPase mitochondrial marker was performed as described below.

[4] = test system: T. gondii mitochondrion; assay: Toxoplasma immunofluorescence assay of organelle morphology; assay type: cell-based, Toxoplasma gondii; conditions: 24 h at 3× EC50; for morphology of the T. gondii mitochondrion: DFX at 60 nM
Procedure: For IFAs to assess organelle morphology, coverslips seeded with HFFs were infected with T. gondii tachyzoites, and 3 h later, compounds were added (at 3 times their respective EC50). Intracellular parasites and host cell monolayers were then fixed 24 h later with 4% (w/v) PFA (diluted in PBS) for 20 min. After fixation, cells were permeabilized with 0.3% (v/v) Triton X-100 (diluted in PBS) for 10 min. Coverslips were blocked with 2% (w/v) bovine serum albumin (BSA) for 1 h prior to immunolabeling with a primary antibody for 1 h. After 3 washes in PBS, a corresponding secondary antibody was incubated for 1 h. Coverslips were then incubated with 1 μg/mL of Hoechst stain for 5 min before 3 washes in PBS and, finally, mounted using Immu-Mount (Thermo Fisher) onto microscope slides. Primary antibodies used were prepared in 2% BSA (diluted in PBS) and used at the following concentrations: the apicoplast was stained using rabbit anti-PDH-E2 (1:500), the mitochondrion was stained using mouse anti-F1β ATPase (1:1000, gift of P. Bradley). Anti-mouse and anti-rabbit secondary antibodies were all from Thermo Fisher and were diluted at 1:4000. Image acquisition was performed with a Zeiss Axio Observer inverted microscope equipped with a Zeiss Axiocam 712 camera and 63×/1.4 or 100×/1.4 Oil Plan Achromat objectives. Images were processed with Zen Blue v3.6 software (Zeiss). Z-stack acquisitions were processed by a maximum-intensity orthogonal projection. Adjustments of brightness and contrast were applied uniformly, and paired images were acquired with the same exposure time. Quantifications of mitochondrial morphology were performed by microscopic observation of a series of at least 100 parasites, and data from three independent biological replicates was acquired and plotted using Prism 8.0 (GraphPad Software). Statistical significance was determined using one-way ANOVA with Tukey’s multiple-comparison test.

[5] = test system: Leishmania mexicana axenic amastigotes; assay: Drug sensitivity assay, dose–response curves, L. mexicana; assay type: cell-based; conditions: for pEC50: axenic amastigotes, mean, n ≥ 3; for L. mexicana selectivity: relative to fibroblasts
Text: as §1

[6] = test system: Toxoplasma gondii tachyzoites (RH strain), intracellular stages; assay: T. gondii lytic cycle plaque assay in HFF monolayers; assay type: cell-based; conditions: for pEC50: intracellular stages, plaque assay in HFFs, 7 days, n ≥ 3; for T. gondii selectivity: relative to fibroblasts
Procedure: T. gondii tachyzoites of the RH strain were routinely maintained through passages in a human foreskin fibroblasts (HFFs) monolayer (ATCC CRL-1634). HFFs and parasites were cultured in standard Dulbecco’s Modified Eagle Medium (DMEM), supplemented with 5% decomplemented fetal bovine serum (FBS), 2 mM L-glutamine, 100 U/mL penicillin, and 100 μg/mL streptomycin (Gibco) at 37 °C and with 5% CO2 in an incubator with a controlled atmosphere.
The lytic cycle of T. gondii tachyzoites was assessed by a plaque assay as described previously. Briefly, tachyzoites were allowed to invade monolayers of HFFs for 3 h before addition of the compounds or the DMSO vehicle and were subsequently cultivated for 7 days at 37 °C and 5% CO2. They were then fixed with 4% (w/v) paraformaldehyde (PFA, diluted in phosphate-buffered saline (PBS)) for 20 min and stained with a 0.1% crystal violet solution (V5265, Sigma-Aldrich), washed, and air-dried before imaging under an Olympus MVX10 microscope.
Figure S1. EC50 determination of selected compounds in Toxoplasma.
B) EC50 curves based on plaque
area measured from three independent plaque assays. Data are mean ± standard deviation. C)
vacuoles were counted for each con dition. Values represented are mean ± standard deviation of […]

[7] = test system: Human BJ Fibroblast; assay: Drug sensitivity assay, dose–response curves, human BJ fibroblasts; assay type: cell-based; conditions: mean, n ≥ 3
Text: as §1

[8] = test system: Babesia divergens intracellular stages; assay: Drug sensitivity assay, dose–response curves, B. divergens; assay type: cell-based; conditions: for pEC50: intracellular stages, mean, n ≥ 3; for B. divergens selectivity: relative to fibroblasts
Text: as §1

[9] = test system: T. brucei 427 bloodstream forms, protein-bound iron; assay: Iron distribution in T. brucei (55Fe, blue native electrophoresis, phosphor imaging); assay type: cell-based, Trypanosoma brucei; conditions: T. brucei preincubated with 55Fe; 8 h exposure; EC90 concentrations for 14 and 15
Procedure: The assay was performed as described in ref . T. brucei 427 bloodstream forms were grown in HMI-9 medium supplemented with 0.5 μM ^55Fe (29 600 MBq mg^–1) in the form of ferric citrate (1:20) and incubated for 24 h. […] Untreated cells were used as a control. After incubation, the cells were harvested by centrifugation and washed three times with NaCl–HEPES buffer (140 mM NaCl, 10 mM HEPES, pH 7.4). Cells were lysed by sonication in NaCl–HEPES buffer containing 1% digitonin and cOmplete EDTA-free protease inhibitor cocktail (Roche). Gels were vacuum-dried, autoradiographed for 5 days using a BAS-IP TR 2025 E tritium storage phosphor screen (GE Healthcare), and visualized with Typhoon FLA 7000 (GE Healthcare).

[10] = test system: T. brucei 427 bloodstream form mitochondria; assay: Mitochondrial membrane potential in T. brucei (TMRE, flow cytometry); assay type: cell-based, Trypanosoma brucei; conditions: 24 h at 3× EC50
Procedure: The mitochondrial membrane potential of T. brucei 427 bloodstream form was assessed using the fluorescent probe TMRE (Thermo Fisher Scientific) as described in ref . […] Untreated cells and cells preincubated with a 50 μM CCCP uncoupler for 30 min were used as negative and positive controls, respectively. Approximately 1 × 10^6 cells were incubated with 60 nM TMRE for 30 min, washed 1× with sterile PBS, and 5,000 events were measured on a Guava EasyCyte 8HT flow cytometer (Luminex) using a 488 nm excitation laser and a 583/26 nm detector. Median fluorescence was plotted against an untreated culture using Prism 8.0 (GraphPad Software), and statistical significance was determined using RM one-way ANOVA with Geisser–Greenhouse correction. The experiment was performed in three biologically independent replicates.

[11] = test system: Trypanosoma gambiense bloodstream forms; assay: Drug sensitivity assay, dose–response curves, T. gambiense; assay type: cell-based; conditions: for pEC50: bloodstream forms, mean, n ≥ 3; for T. gambiense selectivity: relative to fibroblasts
Text: as §1

[12] = test system: T. gondii tachyzoites; conditions: 24 h treatment at 3× EC50
Procedure: Parasites were allowed to invade an HFF monolayer on coverslips for 3 h before addition of the compounds (at 3 times their respective EC50) and left to grow for 24 h before being fixed and performing parasites immunodetection was by IFA with a mouse anti-SAG1 antibody, as described previously. The number of parasites per vacuole was counted and scored. Independent experiments were conducted 3 times, and 200 random vacuoles were counted for each condition.
Replication assay of T. gondii tachyzoites, which were allowed to invade HFF -coated coverslips,
then treated for 24 h with the compounds at 3 times the EC50 or DMSO vehicle, after which number
of parasites per vacuole was quantified for each condition and expressed as a percentage, 200
the compounds, using two -way ANOVA with Dunnett’s multiple comparison test.

`CC(C)(C)OC(=O)NNc1ccc(C(=O)NCCCCCCCCCC[P+](c2ccccc2)(c2ccccc2)c2ccccc2)cc1.[Cl-]` [compound 15, triphenylphosphine-C10-NHCOBocFenylhydrazine] was tested, and the pEC50 [1] was 7.43, the pEC50 [2] was 6.51 and the P. falciparum selectivity [2] was 23. The “T. gondii mitochondrial membrane potential, flow cytometric quantification of Mitotracker labeling” value [3] was “most impactful”, the “Mitotracker staining of T. gondii, microscopic observation” value [3] was “strong decrease in Mitotracker staining” and the “morphology of the T. gondii mitochondrion” value [4] was “altered the morphology of the organelle”. It also gave a pEC50 [5] of 6.46, a L. mexicana selectivity [5] of 21 and a pEC50 [6] of 6.46. The T. gondii selectivity [6] was 21, the pEC50 [7] was 5.13 and the pEC50 [8] was 7.12. The B. divergens selectivity [8] was 96, the “change in overall protein-bound iron distribution” value [9] was “neither mitoDFX nor the nonchelating compound 15 did cause any detectable change” and the “mitochondrial membrane potential of T. brucei (relative to untreated)” value [10] was “less than 50%”. The pEC50 [11] was 7.22 and the T. gambiense selectivity [11] was 122.

`O=C(NCCCCCCCCCC[P+](c1ccccc1)(c1ccccc1)c1ccccc1)c1ccc(-n2nc(-c3ccccc3O)nc2-c2ccccc2O)cc1.[Cl-]` [compound 14, triphenylphosphine-C10-DFX] was tested, and the pEC50 [1] was 8.38, the pEC50 ([1]; listed as mitoDFX) was 8.40 and the T. brucei selectivity ([1]; relative to human BJ fibroblast EC50, listed as mitoDFX) was greater than 300. The pEC50 [2] was 7.26, the P. falciparum selectivity [2] was 31 and the “T. gondii mitochondrial membrane potential, flow cytometric quantification of Mitotracker labeling” value [3] was “most impactful”. For the same compound, the “Mitotracker staining of T. gondii, microscopic observation” value [3] was “strong decrease in Mitotracker staining”, the “quantified mitochondrial morphology change (fragmented/collapsed) by IFA” value [4] was “caused the collapse of most T. gondii mitochondria” and the “morphology of the T. gondii mitochondrion” value [4] was “altered the morphology of the organelle”. For the same compound, the “impact on T. gondii replication (parasites per vacuole)” value [12] was “particularly strong”, the pEC50 [5] was 7.28 and the L. mexicana selectivity [5] was 33. It also gave a pEC50 [6] of 7.77, a T. gondii selectivity [6] of 101 and a pEC50 [7] of 5.77. The pEC50 [8] was 7.39, the B. divergens selectivity [8] was 42 and the “change in overall protein-bound iron distribution” value [9] was “neither mitoDFX nor the nonchelating compound 15 did cause any detectable change”. For the same compound, the “mitochondrial membrane potential of T. brucei (relative to untreated)” value [10] was “less than 50%”, the pEC50 [11] was 7.98 and the T. gambiense selectivity [11] was 165.
